Reference: the NIST ThermoML archive (doi:10.1016/j.jct.2012.08.003)
Numbers after ± are expanded uncertainties.

Key:
[1] = for molar entropy: 101.33 kPa
[2] = Molar enthalpy of transition or fusion; conditions: Crystal
[3] = molar heat capacity at constant pressure; conditions: 101.33 kPa

[Cs+].[F-] [cesium fluoride (CsF)]
Conditions | molar entropy, [1] [J/K/mol] | molar heat capacity at constant pressure, [3] [J/K/mol]
5 K, Crystal, Vacuum adiabatic calorimetry | 0.08 ± 0.02 | 0.16 ± 0.01
10 K, Crystal, Vacuum adiabatic calorimetry | 0.49 ± 0.02 | 1.3 ± 0.05
15 K, Crystal, Vacuum adiabatic calorimetry | 1.54 ± 0.03 | 4.39 ± 0.18
20 K, Crystal, Vacuum adiabatic calorimetry | 3.34 ± 0.04 | 8.57 ± 0.35
25 K, Crystal, Vacuum adiabatic calorimetry | 5.65 ± 0.05 | 12.33 ± 0.5
30 K, Crystal, Vacuum adiabatic calorimetry | 8.2 ± 0.09 | 15.77 ± 0.63
35 K, Crystal, Vacuum adiabatic calorimetry | 10.86 ± 0.09 | 18.9 ± 0.76
40 K, Crystal, Vacuum adiabatic calorimetry | 13.57 ± 0.1 | 21.75 ± 0.87
45 K, Crystal, Vacuum adiabatic calorimetry | 16.28 ± 0.11 | 24.36 ± 0.98
50 K, Crystal, Vacuum adiabatic calorimetry | 18.97 ± 0.12 | 26.72 ± 1.1
60 K, Crystal, Vacuum adiabatic calorimetry | 24.21 ± 0.13 | 30.78 ± 1.2
70 K, Crystal, Vacuum adiabatic calorimetry | 29.21 ± 0.15 | 34.08 ± 1.4
80 K, Crystal, Vacuum adiabatic calorimetry | 33.94 ± 0.16 | 36.74 ± 0.74
90 K, Crystal, Vacuum adiabatic calorimetry | 38.4 ± 0.36 | 38.87 ± 0.8
100 K, Crystal, Vacuum adiabatic calorimetry | 42.59 ± 0.36 | 40.59 ± 0.83
110 K, Crystal, Vacuum adiabatic calorimetry | 46.53 ± 0.37 | 42.2 ± 0.86
120 K, Crystal, Vacuum adiabatic calorimetry | 50.27 ± 0.38 | 43.53 ± 0.89
130 K, Crystal, Vacuum adiabatic calorimetry | 53.8 ± 0.38 | 44.7 ± 0.91
140 K, Crystal, Vacuum adiabatic calorimetry | 57.15 ± 0.39 | 45.59 ± 0.93
150 K, Crystal, Vacuum adiabatic calorimetry | 60.32 ± 0.39 | 46.3 ± 0.94
160 K, Crystal, Vacuum adiabatic calorimetry | 63.33 ± 0.4 | 46.86 ± 0.95
170 K, Crystal, Vacuum adiabatic calorimetry | 66.18 ± 0.4 | 47.31 ± 0.96
180 K, Crystal, Vacuum adiabatic calorimetry | 68.9 ± 0.4 | 47.69 ± 0.97
190 K, Crystal, Vacuum adiabatic calorimetry | 71.49 ± 0.41 | 48 ± 0.98
200 K, Crystal, Vacuum adiabatic calorimetry | 73.95 ± 0.41 | 48.28 ± 0.98
210 K, Crystal, Vacuum adiabatic calorimetry | 76.32 ± 0.41 | 48.51 ± 0.99
220 K, Crystal, Vacuum adiabatic calorimetry | 78.58 ± 0.42 | 48.73 ± 0.99
230 K, Crystal, Vacuum adiabatic calorimetry | 80.75 ± 0.42 | 48.93 ± 0.99
240 K, Crystal, Vacuum adiabatic calorimetry | 82.84 ± 0.42 | 49.12 ± 1
250 K, Crystal, Vacuum adiabatic calorimetry | 84.84 ± 0.43 | 49.3 ± 1
260 K, Crystal, Vacuum adiabatic calorimetry | 86.78 ± 0.43 | 49.48 ± 1
270 K, Crystal, Vacuum adiabatic calorimetry | 88.65 ± 0.43 | 49.66 ± 1
280 K, Crystal, Vacuum adiabatic calorimetry | 90.46 ± 0.44 | 49.84 ± 1
290 K, Crystal, Vacuum adiabatic calorimetry | 92.21 ± 0.44 | 50.03 ± 1
298.15 K, Crystal, Drop calorimetry | 93.6 ± 4.2 | 50.19 ± 1.5
298.15 K, Crystal, Vacuum adiabatic calorimetry | 93.6 ± 0.44 | 50.19 ± 1
300 K, Crystal, Drop calorimetry | 93.91 ± 4.2 | 50.23 ± 1.5
300 K, Crystal, Vacuum adiabatic calorimetry | 93.91 ± 0.44 | 50.22 ± 1
310 K, Crystal, Vacuum adiabatic calorimetry | 95.56 ± 0.44 | 50.42 ± 1
320 K, Crystal, Vacuum adiabatic calorimetry | 97.17 ± 0.45 | 50.63 ± 1
330 K, Crystal, Vacuum adiabatic calorimetry | 98.73 ± 0.45 | 50.86 ± 1
340 K, Crystal, Vacuum adiabatic calorimetry | 100.25 ± 0.45 | 51.09 ± 1
350 K, Crystal, Drop calorimetry | 101.76 ± 4.6 | 51.72 ± 1.6
350 K, Crystal, Vacuum adiabatic calorimetry | 101.74 ± 0.45 | 51.33 ± 1
400 K, Crystal, Drop calorimetry | 108.79 ± 4.9 | 53.82 ± 1.6
450 K, Crystal, Drop calorimetry | 115.27 ± 5.2 | 56.28 ± 1.7
500 K, Crystal, Drop calorimetry | 121.34 ± 5.5 | 58.95 ± 1.8
550 K, Crystal, Drop calorimetry | 127.09 ± 5.7 | 61.78 ± 1.9
600 K, Crystal, Drop calorimetry | 132.59 ± 6 | 64.69 ± 2
650 K, Crystal, Drop calorimetry | 137.88 ± 6.2 | 67.68 ± 2.1
700 K, Crystal, Drop calorimetry | 143.01 ± 6.4 | 70.72 ± 2.1
750 K, Crystal, Drop calorimetry | 148 ± 6.7 | 73.8 ± 2.2
800 K, Crystal, Drop calorimetry | 152.86 ± 6.9 | 76.9 ± 2.3
850 K, Crystal, Drop calorimetry | 157.61 ± 7.1 | 80.02 ± 2.4
900 K, Crystal, Drop calorimetry | 162.28 ± 7.3 | 83.17 ± 2.5
950 K, Crystal, Drop calorimetry | 166.86 ± 7.5 | 86.32 ± 2.6
973 K, Crystal, Drop calorimetry | 168.94 ± 7.6 | 87.78 ± 2.7
973 K, Liquid, Drop calorimetry | 191.65 ± 8.6 | 70.56 ± 2.1
1000 K, Liquid, Drop calorimetry | 193.58 ± 8.7 | 70.56 ± 2.1
1050 K, Liquid, Drop calorimetry | 197.03 ± 8.9 | 70.56 ± 2.1
1100 K, Liquid, Drop calorimetry | 200.31 ± 9 | 70.56 ± 2.1
1150 K, Liquid, Drop calorimetry | 203.44 ± 9.2 | 70.56 ± 2.1
1200 K, Liquid, Drop calorimetry | 206.45 ± 9.3 | 70.56 ± 2.1
1250 K, Liquid, Drop calorimetry | 209.33 ± 9.4 | 70.56 ± 2.1
1300 K, Liquid, Drop calorimetry | 212.1 ± 9.5 | 70.56 ± 2.1
1350 K, Liquid, Drop calorimetry | 214.76 ± 9.7 | 70.56 ± 2.1
1400 K, Liquid, Drop calorimetry | 217.32 ± 9.8 | 70.56 ± 2.1

Conditions | Normal melting temperature [°C]
[1], Crystal, DTA | 699.6 ± 0.5

[2]
Conditions | Molar enthalpy of transition or fusion [kcal/mol]
DSC | 5.28 ± 0.956
enthalpy increment functions | 5.11 ± 1.43
